Source: patent US20230277483A1, “COMPOSITIONS AND METHODS TO TREAT INFLAMMATION” (University of Iowa Research Foundation, priority 2022, published 2023)

Experiments:
[1] = tested on: human gingival fibroblasts (HGF); assay: Proinflammatory cytokines after Pg-LPS challenge (qRT-PCR, ELISA, antibody array); format: cell-based; details: for proinflammatory cytokines (transcripts of IL-1β, 6 and 8): at 0.1 μg after Pg-LPS challenge
Protocol: (§1) Sg metabolites modulate proinflammatory cytokines in human periodontal associated cells in vitro. Sg were cultured in a total of 40 ml DMEM for 24 hrs. After 200 μl of Sg suspension reached 0.2 at OD600 value in a 96-well plate, the Sg metabolites were collected by centrifugation at 3000 g for 10 min and then filtered through a 0.22 μm filter. No toxicity of Sg metabolites was detected using an MTT assay on primary human bone marrow mesenchymal stromal cells (BMSCs) and primary human gingival fibroblasts (HGF) (data no shown). The modulation of Sg metabolites on inflammatory cytokines was tested using human monocyte-derived macrophages (MDM) and HGF. The MDM were generated by inducing a human macrophage cell line (THP-1) using PMA at 10 ng/ml. The MDM at 2×10^6 cells/per well and HGF at 2×10^4 cells/per well were cultured in 24-well plates using DMEM with 10% FBS and 1% PS. The Sg metabolites at 1 and 5% v/v were added and incubated for 24 hrs before challenging with Pg-LPS at 100 ng/ml.
(§2) L-Norleucine as well as other metabolites modulate proinflammatory cytokines in macrophages and HGF. L-Norleucine was obtained commercially (Sigma) and dissolved in DMEM. Mouse macrophages and human HGF were cultured with DMEM supplemented with different concentrations of L-Norleucine and subsequently challenged with Pg-LPS at 100 ng/ml.
(§3) Human monocyte-derived macrophages (MDM) using THP-1 cells and HGF were cultured in a 24-well plate with DMEM and challenged with Pg-LPS at 100 ng/ml.
(§4) In addition, freshly isolated epidydimal white adipose tissues (eWAT) from mice on a HFD for 16 weeks were minced and cultured in 24-well plates and treated with HCA at 0.5 and 1.0 μM in DMEM/F-12 containing 10% cosmic calf serum (CCS) and 1% penicillin-streptomycin (basal growth media, BGM). […] These preliminary data are strong evidence that Sg metabolites have the potential to modulate host inflammatory responses and attenuate inflammation.
HCA promotes proliferation of health related bacteria and inhibits proliferation and attachment of periodontopathogenic bacteria. Promoting the growth of health-related commensal bacteria while inhibiting proliferation and attachment of pathogenic bacteria may be effective at preventing or treating periodontal inflammation. To determine if HCA has an effect on the growth properties of commensal bacteria and periodontopathogens, HCA at different concentrations was added to aerobic culture of S. mitis and S. oralis and anaerobic culture of T. denticola as described in our published manuscript (see detail in Shu et al, Journal of Periodontology, 2022). FIGS. 18A-C summarize the functions of HCA on the proliferation of specific commensal and pathogenic bacteria. […] Furthermore, the function of HCA on P. gingivalis attachment, a key parameter of adhesion and biofilm formation by periodontopathogenic bacteria, was investigated. […] Attachment measurements of P. gingivalis were performed based on our published studies (see detail in Shu et al, Journal of Periodontology, 2022). […] To test the biocompatibility and anti-inflammatory properties of HCA, human monocyte-derived macrophages (MDM) and gingival fibroblasts (HGF) were prepared as described in our previous studies. The cells were then treated with HCA from 0.1 to 50 μM. No toxicity was observed after treatment with different concentrations of HCA in either cell type using an MTT assay (FIGS. 19A and B, left column). The anti-inflammatory function of HCA on MDM and HGF after exposure to P. gingivalis lipopolysaccharide (PG-LPS) was investigated. […] HCA mitigates inflammation and affects the composition of microbiomes in vivo. Recent studies investigated whether HCA modulates periodontal inflammation using a mouse model. To induce periodontal inflammation, a total of 1 μl Pg-LPS at 10 μg/μl was directly injected twice a week into the interdental region between maxillary molars of C57BL/6J mice using a Hamilton1700 series syringe according to our previously published studies. […]

[2] = tested on: human monocyte-derived macrophages (MDM) using THP-1 cells; assay: Proinflammatory cytokines after Pg-LPS challenge (qRT-PCR, ELISA); format: cell-based; details: at 0.1 μg after Pg-LPS challenge
Protocol: as §1, §3, §4
HCA promotes proliferation of health related bacteria and inhibits proliferation and attachment of periodontopathogenic bacteria. Promoting the growth of health-related commensal bacteria while inhibiting proliferation and attachment of pathogenic bacteria may be effective at preventing or treating periodontal inflammation. To determine if HCA has an effect on the growth properties of commensal bacteria and periodontopathogens, HCA at different concentrations was added to aerobic culture of S. mitis and S. oralis and anaerobic culture of T. denticola as described in our published manuscript (see detail in Shu et al, Journal of Periodontology, 2022). FIGS. 18A-C summarize the functions of HCA on the proliferation of specific commensal and pathogenic bacteria. […] Furthermore, the function of HCA on P. gingivalis attachment, a key parameter of adhesion and biofilm formation by periodontopathogenic bacteria, was investigated. […] Attachment measurements of P. gingivalis were performed based on our published studies (see detail in Shu et al, Journal of Periodontology, 2022). […] To test the biocompatibility and anti-inflammatory properties of HCA, human monocyte-derived macrophages (MDM) and gingival fibroblasts (HGF) were prepared as described in our previous studies. The cells were then treated with HCA from 0.1 to 50 μM. No toxicity was observed after treatment with different concentrations of HCA in either cell type using an MTT assay (FIGS. 19A and B, left column). The anti-inflammatory function of HCA on MDM and HGF after exposure to P. gingivalis lipopolysaccharide (PG-LPS) was investigated. […] HCA mitigates inflammation and affects the composition of microbiomes in vivo. Recent studies investigated whether HCA modulates periodontal inflammation using a mouse model. To induce periodontal inflammation, a total of 1 μl Pg-LPS at 10 μg/μl was directly injected twice a week into the interdental region between maxillary molars of C57BL/6J mice using a Hamilton1700 series syringe according to our previously published studies. 100 μl of HCA at 0.5 μM was administrated I.P. three time a week. […] It was also tested whether HCA affects the composition of the microbiome in vivo. For this purpose, high fat diet-induced obese (DIO) mice (The Jackson Laboratory) received I.P, administration of 100 μl of HCA at 0.2 and 0.5 μM three times a week for 3 weeks. […]

Human MDM = assay: Anti-inflammatory miR expression after Pg-LPS challenge; format: cell-based; details: 24 hours after Pg-LPS challenge
Protocol: (§5) FIGS. 11A-11B. Sg metabolites upregulate anti-inflammatory miRs in human macrophages and HGF. A-B: Relative transcript changes of miR-200c, 146a, and 21 in HGF (A) and human MDM (B) treated with AICAR, MA, HCA, and HPLA 24 hours after Pg-LPS challenge; performed in duplicate.
Human MDM was cultured in a 24-well plate and treated with HCA at different concentrations and Pg-LPS at 100 ng/mi for 24 hrs. […] (All data are presented as means±SEM. *: p<0.05 vs untreated, ANOVA).

HGF = assay: as above; format: cell-based, human; details: 24 hours after Pg-LPS challenge
Protocol: as §5

Mouse macrophages = assay: Proinflammatory cytokine transcripts after Pg-LPS challenge; format: cell-based
Protocol: as §2

[3] = L-Norleucine at 1 and 5 μM, Pg-LPS at 100 ng/ml

SMILES | proinflammatory cytokines (transcripts of IL-1β, 6 and 8) [1] | proinflammatory cytokines (IL-6 transcript and IL-6 protein in supernatants) [2] | anti-inflammatory miRs (miR-200c, 146a, and 21) (Human MDM) | anti-inflammatory miRs (miR-200c, 146a, and 21) (HGF) | transcripts of IL-1β, 6, and 8 [1, 3] | IL-6 and IL-8 in macrophages (Mouse macrophages; L-Norleucine) | transcripts of IL-1β, 6, and 8 (Mouse macrophages; [3])
O=C(O)CC(O)C(=O)O (stereo not drawn) [MA, malic acid] | modulate | modulate | upregulate | upregulate | – | – | –
CCCC[C@H](N)C(=O)O [L-Norleucine] | – | – | – | – | effectively downregulated | effectively downregulated | effectively downregulated
O=C(O)C(O)Cc1ccc(O)cc1 (stereo not drawn) [HPLA, 4-hydroxyphenyllactic acid] | modulate | modulate | upregulate | upregulate | – | – | –
NC(=O)c1ncn([C@@H]2O[C@H](CO)[C@@H](O)[C@H]2O)c1N [AICAR, acadesine] | modulate | modulate | upregulate | upregulate | – | – | –
